Data: the Kinase Knowledgebase extract (Sharma et al. 2016)

biological target: CDK2 (human) (UniProt P24941); experiment: Enzyme Assay

**Q.** `CC(C)C(CO)Nc1nc(NCc2cccc(O)c2)c2nnn(C(C)C)c2n1` (stereo not given) was tested. Which IC50 did it give?
**A.** 8 µM

**Q.** For `CC(C)n1nnc2c(NCc3cccc(O)c3)nc(N[C@H]3CC[C@H](N)CC3)nc21`, which IC50 is on record?
**A.** 4.9 µM

**Q.** `O[C@H]1CC[C@H](Nc2nc(Nc3cccc(Cl)c3)c3nnn(Cc4ccccc4)c3n2)CC1` was tested. Which IC50 did it give?
**A.** > 100 µM

**Q.** Which IC50 does the source give for `CCC(CO)Nc1nc(NCc2ccccc2O)c2nnn(C(C)C)c2n1` (stereo not given) here?
**A.** 1.2 µM

**Q.** How did the IC50 turn out when `CCC(CO)Nc1nc(NCc2ccccc2)c2nnn(C(C)C)c2n1` (stereo not given) was run?
**A.** 4.1 µM

**Q.** With `CC(C)n1nnc2c(Nc3cccc(Cl)c3)nc(N[C@H]3CC[C@H](N)CC3)nc21` as the compound, how does the IC50 read?
**A.** 1.1 µM

**Q.** `CC(C)n1nnc2c(NCc3ccccc3O)nc(N[C@@H]3CCCC[C@@H]3N)nc21` was tested. Which IC50 did it give?
**A.** 4.1 µM

**Q.** How did the IC50 turn out when `CCC(CO)Nc1nc(NCc2ccc(OC)c(O)c2)c2nnn(C(C)C)c2n1` (stereo not given) was run?
**A.** 2.3 µM

**Q.** For `CC(C)n1nnc2c(NCc3ccccc3O)nc(N[C@H]3CC[C@H](N)CC3)nc21`, which IC50 is on record?
**A.** 16.4 µM

**Q.** Which IC50 does the source give for `CC(C)n1nnc2c(NCc3ccccc3O)nc(NCc3ccccc3O)nc21` here?
**A.** > 100 µM

**Q.** Which IC50 does the source give for `CC(C)C(CO)Nc1nc(Nc2cccc(Cl)c2)c2nnn(C(C)C)c2n1` (stereo not given) here?
**A.** 20 µM

**Q.** With `CC(C)C(CO)Nc1nc(NCc2ccccc2)c2nnn(C(C)C)c2n1` (stereo not given) as the compound, how does the IC50 read?
**A.** 7.3 µM

**Q.** With `CCC(CO)Nc1nc(NCc2cccc(O)c2)c2nnn(C(C)C)c2n1` (stereo not given) as the compound, how does the IC50 read?
**A.** 10 µM

**Q.** For `O[C@H]1CC[C@H](Nc2nc(NCC3CCCCC3)c3nnn(Cc4ccccc4)c3n2)CC1`, which IC50 is on record?
**A.** > 100 µM

**Q.** `CCCCCCNc1nc(NC(CO)c2ccccc2)c2nnn(C(C)C)c2n1` (stereo not given) was tested. Which IC50 did it give?
**A.** > 100 µM

**Q.** With `CC(C)n1nnc2c(NCc3ccccc3)nc(NCCCO)nc21` as the compound, how does the IC50 read?
**A.** 100 µM

**Q.** `COc1ccc(CNc2nc(N[C@@H]3CCCC[C@@H]3N)nc3c2nnn3C(C)C)cc1O` was tested. Which IC50 did it give?
**A.** 13.7 µM

**Q.** How did the IC50 turn out when `CC(C)n1nnc2c(NCc3ccccc3)nc(N[C@H]3CC[C@H](N)CC3)nc21` was run?
**A.** 11.3 µM

**Q.** With `CC(C)C(CO)Nc1nc(NCc2ccccc2O)c2nnn(C(C)C)c2n1` (stereo not given) as the compound, how does the IC50 read?
**A.** 0.84 µM

**Q.** With `CC(C)n1nnc2c(NCc3ccc(O)cc3)nc(N[C@H]3CC[C@H](N)CC3)nc21` as the compound, how does the IC50 read?
**A.** 2.8 µM
